Measurements published in patent US20250049029A1, “Agrochemical Compositions” (priority 2021, published 2025).

Experiments:
[1] = Micrographic check for crystals after combining active ingredient with permeable S-metolachlor capsule suspension; assay type: physicochemical
Experimental: During further testing, Composition 2 was made with metribuzin being the only active ingredient (i.e., S-metolachlor and mesotrione were not present). An image, at 50-micron scale bar, is provided at FIG. 4A. To this formulation, the capsule suspension used in Composition 2 was added.
Further testing was done by replacing the metribuzin with sulfentrazone. In these tests sulfentrazone technical (powder, Dv(95)=307 microns) was added to a composition the CS of Composition 2 at a ratio of S-metolachlor:sulfentrazone of 10:0.8, and mixed for 1 hour at 30° C. to provide additional solubilization over room temperature.

[2] = Particle size and wet sieve residue of S-metolachlor CS mixed with sulfentrazone technical; assay type: physicochemical; conditions: single component, before mixing
Experimental: Additional testing was done using two jars with S-metolachlor CS of Composition 2 and 8% sulfentrazone technical at a ratio of […]. One was mixed at room temperature and one at 30° C. for 1 hour.

SMILES | sulfentrazone crystals observed ([1]; sulfentrazone technical added to CS of Composition 2, S-metolachlor:sulfentrazone 10:0.8, mixed 1 hour at 30° C., FIG. 5) | Dv(95) ([1]; sulfentrazone technical powder, before addition) [microns] | Dv(50) [2] | Dv(95) [2] | metribuzin crystals visible ([1]; Composition 2 made with metribuzin as only active ingredient, after adding the capsule suspension used in Composition 2, FIG. 4B)
Cc1nn(-c2cc(NS(C)(=O)=O)c(Cl)cc2Cl)c(=O)n1C(F)F [sulfentrazone, Sulfentrazone] | no sulfentrazone crystals were observed | 307 | 30.3 | 307 | 
CSc1nnc(C(C)(C)C)c(=O)n1N [metribuzin, Metribuzin] |  |  |  |  | no metribuzin crystals appeared visible
